BindingDB's records for patent US20250313563 (The Broad Institute, 2025)
pIC50: −log10 of the molar value. “And” between values parts separate entries of the source, which are not always exact repeats. Equal values may be shown once.

What was measured:
[1] = target: Glycogen synthase kinase-3 alpha (Homo sapiens, UniProt P49840); assay: TR-FRET Assay
Experimental: (§1) The assay was performed in a white, 384 well, low volume, flat bottom plate (Grenier). […] The kinase activity was quenched with 2 μL of 250 mM EDTA. A 10 μL volume of 40 nM Strepavidin-d2, 2 nM Tb2+-pSer641 antibody in TR-FRET Detection Buffer (Invitrogen) was then added.

[2] = target: Glycogen synthase kinase-3 beta (Homo sapiens, UniProt P49841); assay: TR-FRET Assay
Experimental: as §1

Sequence of Glycogen synthase kinase-3 beta (P49841 whole entry): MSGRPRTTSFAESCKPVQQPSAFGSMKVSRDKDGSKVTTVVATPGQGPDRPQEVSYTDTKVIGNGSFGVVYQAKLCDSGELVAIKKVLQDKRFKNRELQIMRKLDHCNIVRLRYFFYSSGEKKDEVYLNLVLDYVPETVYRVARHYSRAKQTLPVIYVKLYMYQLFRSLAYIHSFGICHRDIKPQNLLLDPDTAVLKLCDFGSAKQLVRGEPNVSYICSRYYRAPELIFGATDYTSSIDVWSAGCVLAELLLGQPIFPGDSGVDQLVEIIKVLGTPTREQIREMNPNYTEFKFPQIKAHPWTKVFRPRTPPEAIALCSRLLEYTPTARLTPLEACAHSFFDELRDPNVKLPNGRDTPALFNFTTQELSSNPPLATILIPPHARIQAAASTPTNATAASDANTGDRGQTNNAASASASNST
Sequence of Glycogen synthase kinase-3 alpha (P49840 whole entry): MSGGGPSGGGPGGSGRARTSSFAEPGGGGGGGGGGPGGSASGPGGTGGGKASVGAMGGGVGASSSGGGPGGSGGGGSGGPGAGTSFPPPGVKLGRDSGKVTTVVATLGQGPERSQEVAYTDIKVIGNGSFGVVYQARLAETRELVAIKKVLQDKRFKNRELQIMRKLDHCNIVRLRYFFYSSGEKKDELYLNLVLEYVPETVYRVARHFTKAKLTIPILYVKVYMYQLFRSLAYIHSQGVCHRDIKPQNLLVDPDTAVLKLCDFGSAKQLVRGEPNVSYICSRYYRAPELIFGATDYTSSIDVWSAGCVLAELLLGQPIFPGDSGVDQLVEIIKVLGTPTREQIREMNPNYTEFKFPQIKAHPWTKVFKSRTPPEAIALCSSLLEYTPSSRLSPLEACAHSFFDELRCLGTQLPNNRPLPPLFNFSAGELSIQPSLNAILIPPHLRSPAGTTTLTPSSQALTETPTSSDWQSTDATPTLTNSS

| pIC50 [1] | pIC50 [2] | SMILES |
| --- | --- | --- |
| 5.30 to 6.00 | – | CC[C@@]1(c2cccc(-c3ccnc(OC)c3)c2)C2=CN=NC2NC2=C1C(=O)CC(C)(C)C2 (some centres undefined) [US20250313563, Compound 911989] |
| > 7.00 and 6.00 to 7.00 | – | CC[C@@]1(c2cccc(-c3ccnc4cccnc34)c2)C2=CN=NC2NC2=C1C(=O)NC(C)(C)C2 (some centres undefined) [US20250313563, Compound 952560] |
| 6.00 to 7.00 | – | CC[C@@]1(c2cccc(C(F)(F)F)c2)C2=CN=NC2NC2=C1C(=O)C[C@@]1(CCNC1=O)C2 (some centres undefined) [US20250313563, Compound 950331] |
| 5.30 to 6.00 | – | CC[C@]1(c2cccc(-c3cnn(C)c3C(F)(F)F)c2)C2=CN=NC2NC2=C1C(=O)NC(C)(C)C2 (some centres undefined) [US20250313563, Compound 948826] |
| 6.00 to 7.00 | – | CC[C@@]1(c2cccc(Br)c2)C2=CN=NC2NC2=C1C(=O)CC(C)(C)C2 (some centres undefined) [US20250313563, Compound 790734] |
| 5.30 to 6.00 | – | CC[C@@]1(c2cccc(C(F)(F)F)c2)C2=CN=NC2NC2=C1C(=O)NC[C@@H]2C (some centres undefined) [US20250313563, Compound 945384] |
| 5.30 to 6.00 | – | CC[C@]1(c2cccc(-c3cn(C)nc3C)c2)C2=CN=NC2NC2=C1C(=O)N(C)C(C)(C)C2 (some centres undefined) [US20250313563, Compound 949008] |
| – | 6.00 to 7.00 | CC[C@@]1(c2cccc(C(F)(F)F)c2)C2=C(CCN(c3cnc(OC)nc3)C2=O)NC2N=NC(C)=C21 (some centres undefined) [US20250313563, Compound 949126] |
| – | 6.00 to 7.00 | CC[C@]1(c2cccc(-c3ccnc(C)c3)c2)C2=CN=NC2NC2=C1C(=O)N(C)C(C)(C)C2 (some centres undefined) [US20250313563, Compound 949004] |
| – | > 7.00 | CCC1(c2cccc(-c3ccncc3)c2)C2=CN=NC2NC2=C1C(=O)CC(C)(C)C2 (centres undefined) [US20250313563, Compound 883984] |
| – | 6.00 to 7.00 | CC[C@]1(c2cccc(C(F)(F)F)c2)C2=C(CC(C)(C)CC2=O)NC2N=NC(Br)=C21 (some centres undefined) [US20250313563, Compound 810466] |
| – | 6.00 to 7.00 | CC[C@@]1(c2cccc(-c3ccncc3Cl)c2)C2=CN=NC2NC2=C1C(=O)NC(C)(C)C2 (some centres undefined) [US20250313563, Compound 948142] |
| – | 6.00 to 7.00 | CC[C@@]1(c2cccc(-c3cnn(Cc4ccc(C(F)(F)F)cc4)c3)c2)C2=CN=NC2NC2=C1C(=O)NC(C)(C)C2 (some centres undefined) [US20250313563, Compound 951849] |
| – | 6.00 to 7.00 | CC[C@]1(c2cccc(C(F)(F)F)c2)C2=C(N=NC2)NC2=C1C(=O)N(C)[C@@H]2C [US20250313563, Compound 913454] |
| – | 6.00 to 7.00 | CC[C@]1(c2cccc(C(F)(F)F)c2)C2=CN=NC2NC2=C1C(=O)N(c1ccccc1)CC2 (some centres undefined) [US20250313563, Compound 929474] |
| – | 6.00 to 7.00 | CC[C@]1(c2cccc(-c3ccnc(O)c3)c2)C2=CN=NC2NC2=C1C(=O)CC(C)(C)C2 (some centres undefined) [US20250313563, Compound 943992] |
| – | 5.30 to 6.00 | CC[C@@]1(c2cccc(-c3cc(C)ncc3F)c2)C2=CN=NC2NC2=C1C(=O)CC(C)(C)C2 (some centres undefined) [US20250313563, Compound 927346] |
| – | < 5.30 | CC[C@@]1(c2cccc(C(F)(F)F)c2)C2=C(N=NC2)NC2=C1C(=O)N(C)[C@H]2C [US20250313563, Compound 913495] |
| – | 6.00 to 7.00 | CC[C@]1(c2cccc(-c3ccncc3C)c2)C2=CN=NC2NC2=C1C(=O)CC(C)(C)C2 (some centres undefined) [US20250313563, Compound 943990] |
| – | 6.00 to 7.00 | CC[C@]1(c2cccc(C(F)(F)F)c2)C2=C(N=NC2)NC2=C1C(=O)N(C)[C@H]2C [US20250313563, Compound 913473] |
| – | 5.30 to 6.00 | CC[C@@]1(c2cccc(-c3ccnc(C)c3)c2)C2=CN=NC2NC2=C1C(=O)C[C@]1(CCOC1)C2 (some centres undefined) [US20250313563, Compound 947407] |

Further lines, the molecule ahead of its results:

| SMILES | pIC50 [1] | pIC50 [2] |
| --- | --- | --- |
| CC[C@@]1(c2cccc(-c3ccncc3F)c2)C2=C(CC(C)(C)NC2=O)NC2N=NC(F)=C21 (some centres undefined) [US20250313563, Compound 949651] | 6.00 to 7.00 | – |
| CC[C@@]1(c2cccc(OC(C)C)c2)C2=CN=NC2NC2=C1C(=O)CC(C)(C)C2 (some centres undefined) [US20250313563, Compound 811563] | 5.30 to 6.00 | – |
| CC[C@]1(c2cccc(-c3cnn(C)c3F)c2)C2=CN=NC2NC2=C1C(=O)NC(C)(C)C2 (some centres undefined) [US20250313563, Compound 949395] | 5.30 to 6.00 | – |
| CC[C@]1(c2cccc(-c3cnn4c3CCCC4)c2)C2=CN=NC2NC2=C1C(=O)NC(C)(C)C2 (some centres undefined) [US20250313563, Compound 947415] | 5.30 to 6.00 | – |
| CC[C@@]1(c2cccc(N3CCCC3)c2)C2=C(CC(C)(C)CC2=O)NC2N=NC(C(F)(F)F)=C21 (some centres undefined) [US20250313563, Compound 819575] | 6.00 to 7.00 | – |
| CC[C@@]1(c2cccc(-c3c(C)cnn3C)c2)C2=CN=NC2NC2=C1C(=O)NC(C)(C)C2 (some centres undefined) [US20250313563, Compound 952021] | > 7.00 and 6.00 to 7.00 | – |
| CC[C@@]1(c2cccc(Cl)c2)C2=C(CC(C)(C)CC2=O)NC2N=NC(C(F)(F)F)=C21 (some centres undefined) [US20250313563, Compound 801309] | 5.30 to 6.00 | – |
| CC[C@]1(c2cccc(S(=O)(=O)C3CC3)c2)C2=CN=NC2NC2=C1C(=O)NC(C)(C)C2 (some centres undefined) [US20250313563, Compound 946004] | 6.00 to 7.00 | – |
| CC[C@@]1(c2cccc(N(C)c3ncccn3)c2)C2=C(CC(C)(C)NC2=O)NC2N=NC(C(F)(F)F)=C21 (some centres undefined) [US20250313563, Compound 949181] | – | > 7.00 and 6.00 to 7.00 |
| CC[C@@]1(c2cccc(-c3c(F)cncc3OC)c2)C2=C(N=NC2)NC2=C1C(=O)N(Cc1ccccc1)C2 [US20250313563, Compound 948550] | – | 6.00 to 7.00 |
| CC1(C)CC(=O)C2=C(C1)NC1N=NC(C3(C(F)(F)F)CC3)=C1[C@@]21CCc2c(F)cccc21 (some centres undefined) [US20250313563, Compound 816839] | – | 5.30 to 6.00 |
| CC(C)(C)CC1N=NC2=C1[C@@]1(CCc3cccc(F)c31)C1=C(CC(C)(C)CC1=O)N2 (some centres undefined) [US20250313563, Compound 801351] | – | 6.00 to 7.00 |
| CC[C@]1(c2cccc(-c3c(C)cnc4ccccc34)c2)C2=C(CC(C)(C)NC2=O)NC2=NN=CC21 (some centres undefined) [US20250313563, Compound 949398] | – | 6.00 to 7.00 |
| CC[C@@]1(c2cccc(C)c2)C2=C(CC(C)(C)CC2=O)NC2N=NC(C(F)(F)F)=C21 (some centres undefined) [US20250313563, Compound 883873] | – | 6.00 to 7.00 |
| CC[C@]1(c2cccc(-c3ccnc4c3CCCC4)c2)C2=C(N=NC2)NC2=C1C(=O)N(Cc1ccccc1)C2 [US20250313563, Compound 948551] | – | 6.00 to 7.00 |
| CCCS(=O)(=O)c1cccc([C@@]2(CC)C3=CN=NC3NC3=C2C(=O)CC(C)(C)C3)c1 (some centres undefined) [US20250313563, Compound 929447] | – | > 7.00 and 6.00 to 7.00 |
| CC[C@@]1(c2cccc(-c3ccnc4c3CCCC4)c2)C2=CN=NC2NC2=C1C(=O)CC(C)(C)C2 (some centres undefined) [US20250313563, Compound 944033] | – | 6.00 to 7.00 |
| CC[C@]1(c2cccc(-c3ccnc(C)c3C)c2)C2=CN=NC2NC2=C1C(=O)CC(C)(C)C2 (some centres undefined) [US20250313563, Compound 943516] | – | 5.30 to 6.00 |
| CC[C@@]1(c2cccc(-c3cnn(C(C)(C)C)c3)c2)C2=CN=NC2NC2=C1C(=O)NC(C)(C)C2 (some centres undefined) [US20250313563, Compound 949112] | – | 6.00 to 7.00 and < 5.30 |

| SMILES | pIC50 [1] | pIC50 [2] |
| --- | --- | --- |
| CC(C)(C)CC1N=NC2=C1[C@@](C)(c1cccc(N3C=COCC3)c1)C1=C(CC(C)(C)CC1=O)N2 (some centres undefined) [US20250313563, Compound 126399] | – | < 5.30 |
| CC[C@@]1(c2cccc(-c3ccnn3C)c2)C2=C(CC(C)(C)CC2=O)NC2N=NC(C)=C21 (some centres undefined) [US20250313563, Compound 913023] | – | > 7.00 and 6.00 to 7.00 |
| CC1(C)CC(=O)C2=C(C1)NC1N=NC(C3CC(F)(F)C3)=C1[C@]21COc2ccccc21 (some centres undefined) [US20250313563, Compound 127429] | – | 5.30 to 6.00 |
| CC1(C)CC(=O)C2=C(C1)NC1=C(CN=N1)[C@]21COC2(CN(C(=O)C3CCOCC3)C2)C1 [US20250313563, Compound 945407] | – | 6.00 to 7.00 |
| CC[C@@]1(c2cccc(C(F)F)c2)C2=C(CC(C)(C)NC2=O)NC2N=NC(C(F)(F)F)=C21 (some centres undefined) [US20250313563, Compound 951948] | – | 6.00 to 7.00 |
| CC[C@]1(c2cccc(S(=O)(=O)C3CC3)c2)C2=CN=NC2NC2=C1C(=O)CC(C)(C)C2 (some centres undefined) [US20250313563, Compound 912171] | – | > 7.00 and 6.00 to 7.00 |
| CC[C@@]1(c2cccc(Oc3ncccn3)c2)C2=C(CC(C)(C)CC2=O)NC2N=NC(C(F)(F)F)=C21 (some centres undefined) [US20250313563, Compound 951604] | – | 6.00 to 7.00 |
| CCN(c1cccc([C@@]2(CC)C3=CN=NC3NC3=C2C(=O)CC(C)(C)C3)c1)c1ncccn1 (some centres undefined) [US20250313563, Compound 947333] | – | 6.00 to 7.00 |
| CC[C@]1(c2cccc(N(C)c3nccc(C)n3)c2)C2=CN=NC2NC2=C1C(=O)CC(C)(C)C2 (some centres undefined) [US20250313563, Compound 945328] | – | 6.00 to 7.00 |
| CC[C@@]1(c2cccc(-c3cnn(CC#N)c3)c2)C2=CN=NC2NC2=C1C(=O)NC(C)(C)C2 (some centres undefined) [US20250313563, Compound 952210] | – | 6.00 to 7.00 |
| CN1C[C@@]2(C3=C(CC(C)(C)CC3=O)NC3N=NC(CC(C)(C)C)=C32)c2ccccc21 (some centres undefined) [US20250313563, Compound 125979] | – | 5.30 to 6.00 |
| CC[C@]1(c2cccc(-c3cc(C)ncc3F)c2)C2=CN=NC2NC2=C1C(=O)NC(C)(C)C2 (some centres undefined) [US20250313563, Compound 947804] | – | 6.00 to 7.00 |
| CC[C@@]1(c2cccc(-c3c(Cl)cncc3Cl)c2)C2=CN=NC2NC2=C1C(=O)NC(C)(C)C2 (some centres undefined) [US20250313563, Compound 948515] | – | 6.00 to 7.00 |
| CC[C@@]1(c2cccc(-c3cnn(C)c3)c2)C2=C(CC(C)(C)NC2=O)NC2N=NC(F)=C21 (some centres undefined) [US20250313563, Compound 949011] | – | 6.00 to 7.00 |
| CC(C)(C)CC1=C2C(N=N1)NC1=C(C(=O)CC(C)(C)C1)[C@]21CCc2c(F)cccc21 (some centres undefined) [US20250313563, Compound 791256] | – | 5.30 to 6.00 |
| CC[C@@]1(c2cccc(N3CCCC3)c2)C2=C(CC(C)(C)CC2=O)NC2N=NC(C)=C21 (some centres undefined) [US20250313563, Compound 883874] | – | 6.00 to 7.00 |
| CC1(C)CC(=O)C2=C(C1)NC1=C(CN=N1)[C@@]21COC2(CN(C(=O)C3CCC4(CC3)COC4)C2)C1 [US20250313563, Compound 944075] | – | 6.00 to 7.00 |
| CC[C@]1(c2cccc(Cl)c2)C2=C(CC(C)(C)CC2=O)NC2N=NC(Br)=C21 (some centres undefined) [US20250313563, Compound 801314] | – | > 7.00 and 6.00 to 7.00 |
| CC[C@@]1(c2cccc(-c3ccnn3C)c2)C2=CN=NC2NC2=C1C(=O)N[C@](C)(COC)C2 (some centres undefined) [US20250313563, Compound 947905] | – | 6.00 to 7.00 |
